Some targets named below: HLA-A*0201 (HLA-A2.1) (Homo sapiens, UniProt P04439, D140Y/D185E/D98H/E176V/E277Q/G131W/G231S/I119V/I121R/I166T/I218V/L300P/L318F/N151K/N90K/P208A/P217A/Q86G/Q94H/R138H/R169H/T345S); A*6802 (Homo sapiens, UniProt P04439, A269V/D140Y/D185E/E176V/E277Q/E87N/F33Y/G231S/I121R/I166T/I218V/L180W/L300P/L318F/N151K/P208A/P217A/Q86R/R138H/R169H/S129P/T345S/V36M); A*0206 (Homo sapiens, UniProt P04439, D140Y/D185E/D98H/E176V/E277Q/F33Y/G131W/G231S/I119V/I121R/I166T/I218V/L300P/L318F/N151K/N90K/P208A/P217A/Q86G/Q94H/R138H/R169H/T345S); A*0202 (Homo sapiens, UniProt P04439, D140Y/D185E/D98H/E176V/E277Q/G131W/G231S/I119L/I121R/I166T/I218V/L180W/L300P/L318F/N151K/N90K/P208A/P217A/Q67R/Q86G/Q94H/R138H/R169H/T345S); A*0203 (Homo sapiens, UniProt P04439, A173T/D140Y/D185E/D98H/E277Q/G131W/G231S/I119V/I121R/I166T/I218V/L180W/L300P/L318F/N151K/N90K/P208A/P217A/Q86G/Q94H/R138H/R169H/T345S).

Test in all cases: biochemical
Holding throughout (format): binding

What is called IC50 is the point on the concentration scale where inhibition reaches its midpoint. The low end stands for greater potency, the high end for weaker potency.

No end group written: not given here. A value given as a limit tells only on which side of the number the result lay.

Take `CC[C@H](C)[C@H](NC(=O)CNC(=O)[C@@H](NC(=O)[C@@H](NC(=O)[C@H](C)NC(=O)CN)[C@@H](C)O)C(C)C)C(=O)N[C@@H](CCSC)C(=O)N[C@H](C(=O)NCC(=O)N[C@H](C(=O)N[C@H](C(=O)O)C(C)C)C(C)C)[C@@H](C)CC` [Peptide 9013.0342]: the concentration for half-maximal inhibition (IC50) at HLA-A*0201 (HLA-A2.1) is above 20000 nM; at A*6802 it was 671 nM; against A*0206 it was 4530 nM; at A*0202 it was 7520 nM; against A*0203, 341 nM.
The corresponding values for RVLQQLLFV [Peptide 1545.05] are 10 nM, above 20000 nM, 6.4 nM, 1010 nM and 29 nM.
On the same counts, the results for FLVAFKQFL [Peptide 1578.42] are 55 nM, 1400 nM, 81 nM, 0.43 nM and 4.7 nM.
Take CLAHNSDTGL [Peptide 9013.0191]: the IC50 was 13500 nM against HLA-A*0201 (HLA-A2.1); above 20000 nM against A*6802; above 20000 nM on A*0206; 13 nM against A*0202; 39 nM against A*0203.
With EVQNTTYLWWV [Peptide 9013.0326], the 50% inhibitory concentration (IC50) against HLA-A*0201 (HLA-A2.1) is above 20000 nM; on A*6802, 34 nM; at A*0206 it was above 20000 nM; at A*0202 it was above 20000 nM; at A*0203 it was 19600 nM.
For the compound PLYSWRINGI [Peptide 9013.0236], the IC50 is above 20000 nM against HLA-A*0201 (HLA-A2.1); above 20000 nM against A*6802; above 20000 nM against A*0206; 348 nM at A*0202; 14 nM on A*0203.
On to MTSNPAIPV [Peptide 1539.03], for which the IC50 on HLA-A*0201 (HLA-A2.1) is 1470 nM; on A*6802, 2 nM; against A*0206, 911 nM; against A*0202 it was 951 nM; against A*0203, 68 nM.
HLQVLFIAKI [Peptide 9013.0244]: the IC50 is 5930 nM at HLA-A*0201 (HLA-A2.1); above 20000 nM on A*6802; 121 nM against A*0206; 789 nM against A*0202; 29 nM against A*0203.
Take TVNNSGSYV [Peptide 9013.0064]: the IC50 is 16600 nM at HLA-A*0201 (HLA-A2.1); 44 nM at A*6802; above 20000 nM on A*0206; 310 nM on A*0202; 39 nM on A*0203.
In the case of IIYPNASLV [Peptide 9013.0029], the IC50 against HLA-A*0201 (HLA-A2.1) was 230 nM; on A*6802, 409 nM; on A*0206, 152 nM; against A*0202, 24 nM; against A*0203, 4 nM.
The corresponding values for YVSGANLNL [Peptide 9013.0100] are 6160 nM, 374 nM, 230 nM, 13 nM and 75 nM.
On the same counts, the results for LLFWNPPTTA [Peptide 9013.0123] are 25 nM, 2140 nM, 1170 nM, 1.3 nM and 1.6 nM.
YTNWGEIYI [Peptide 1578.49]: the concentration for half-maximal inhibition (IC50) turned out to be 293 nM against HLA-A*0201 (HLA-A2.1); 24 nM against A*6802; 700 nM against A*0206; 10 nM on A*0202; 82 nM at A*0203.
Take LQLSNDNRTLV [Peptide 9013.0307]: the concentration for half-maximal inhibition (IC50) at HLA-A*0201 (HLA-A2.1) was 12800 nM; against A*6802 it was above 20000 nM; against A*0206, 99 nM; against A*0202 it was 1390 nM; against A*0203, 5200 nM.
On the same counts, the results for SLQDSQFEL [Peptide 1578.35] are 141 nM, 8850 nM, 160 nM, 1.4 nM and 165 nM.
The corresponding values for ALYWYRTGM [Peptide 86.0189] are 1600 nM, above 20000 nM, 15600 nM, 13 nM and 57 nM.
In the case of CQAHNSDTGV [Peptide 9013.0190], the half-inhibitory concentration (IC50) on HLA-A*0201 (HLA-A2.1) was above 20000 nM; against A*6802, above 20000 nM; at A*0206, 1560 nM; on A*0202 it was 339 nM; against A*0203, 466 nM.
With FLSALKLFL [Peptide 1578.17], the IC50 against HLA-A*0201 (HLA-A2.1) is 17 nM; against A*6802 it was 2150 nM; against A*0206, 45 nM; on A*0202, 2.8 nM; on A*0203, 11 nM.
The corresponding values for TLFNVTRNDV [Peptide 9013.0230] are 1480 nM, above 20000 nM, 4840 nM, 69 nM and 25 nM.
The corresponding values for LTFWNPPTTV [Peptide 9013.0122] are 210 nM, 23 nM, 339 nM, 38 nM and 1.9 nM.
For FQKYKTLFV [Peptide 1578.54], the IC50 at HLA-A*0201 (HLA-A2.1) is 1140 nM; on A*6802, above 20000 nM; on A*0206 it was 419 nM; on A*0202, 821 nM; on A*0203 it was 30 nM.
On the same counts, the results for QITPLCVTL [Peptide 1516.13] are 976 nM, 2870 nM, 634 nM, 124 nM and 4390 nM.
In the case of QLHTQVLFIA [Peptide 9013.0242], the 50% inhibitory concentration (IC50) against HLA-A*0201 (HLA-A2.1) is 3940 nM; on A*6802 it was above 20000 nM; against A*0206 it was above 20000 nM; against A*0202, 322 nM; at A*0203, 163 nM.
Consider ALFNVQEGV [Peptide 1578.41], for which the IC50 against HLA-A*0201 (HLA-A2.1) was found to be 64 nM; on A*6802, 914 nM; on A*0206, 45 nM; on A*0202, 2 nM; on A*0203 it was 5.2 nM.
As to KLMSQLLNI [Peptide 1578.29], the concentration for half-maximal inhibition (IC50) is 35 nM against HLA-A*0201 (HLA-A2.1); above 20000 nM against A*6802; 56 nM against A*0206; 1.6 nM against A*0202; 12 nM on A*0203.
In the case of VLAEAMSHT [Peptide 1539.06], the IC50 against HLA-A*0201 (HLA-A2.1) was 243 nM; against A*6802, above 20000 nM; against A*0206 it was 975 nM; at A*0202, 16 nM; on A*0203, 7.5 nM.
Take GLTVGIMIGVL [Peptide 9013.0343]: the half-maximal inhibitory concentration (IC50) on HLA-A*0201 (HLA-A2.1) was found to be 5010 nM; at A*6802 it was 2640 nM; against A*0206 it was 11500 nM; against A*0202, 914 nM; at A*0203, 290 nM.
The corresponding values for IQNDTGFYTV [Peptide 9013.0149] are 600 nM, 8840 nM, 63 nM, 20 nM and 31 nM.
On the same counts, the results for TLQDVSLEV [Peptide 1578.45] are 701 nM, 2680 nM, 2070 nM, 18 nM and 26 nM.
As for RLQLSNGNRTV [Peptide 9013.0328], the IC50 at HLA-A*0201 (HLA-A2.1) was 5900 nM; at A*6802, 4840 nM; against A*0206, above 20000 nM; on A*0202, 128 nM; on A*0203, 57 nM.
On the same counts, the results for RTLQLLLFV [Peptide 1525.25] are 4.7 nM, 3210 nM, 11 nM, 371 nM and 468 nM.
Consider RLTVTTITV [Peptide 9013.0067], for which the IC50 on HLA-A*0201 (HLA-A2.1) was found to be 108 nM; at A*6802, 13000 nM; on A*0206, 704 nM; against A*0202, 22 nM; against A*0203 it was 36 nM.
On the same counts, the results for VLAEAMGQV [Peptide 1539.05] are 55 nM, 168 nM, 75 nM, 1.7 nM and 3.2 nM.
On the same counts, the results for YLCGIQNSVSA [Peptide 9013.0338] are 208 nM, 9160 nM, 513 nM, 21 nM and 180 nM.
IIYPNASLLV [Peptide 9013.0144]: the IC50 on HLA-A*0201 (HLA-A2.1) came out at 466 nM; at A*6802, 830 nM; on A*0206, 70 nM; on A*0202, 9.9 nM; against A*0203 it was 4.7 nM.
On the same counts, the results for EVLLLVHNV [Peptide 9013.0021] are 3030 nM, 3 nM, 107 nM, 6240 nM and 6600 nM.
With IQGAVISFV [Peptide 1578.13], the half-inhibitory concentration (IC50) came out at 45 nM against HLA-A*0201 (HLA-A2.1); 4880 nM against A*6802; 35 nM on A*0206; 12 nM on A*0202; 13 nM against A*0203.

Source of the values: patent publication US9340577B2, “HLA binding motifs and peptides and their uses” (priority 1992, dated 2016).
